Data set [1] can be described thus: Plasma and brain levels after oral administration in wildtype mice. In kind it is in vivo, FVB mice. How it is done: First, we could confirm that buparlisib also achieves excellent brain penetration after oral administration, since the observed brain-plasma ratio in WT FVB mice was in line with those obtained following i.v. administration (Figs 2C, 3A).
Figure 3 Buparlisib has excellent intracranial target engagement and oral bioavailability. (A) Buparlisib was orally administered to wildtype mice at a dose of 1 mg/kg, 2 mg/kg or 5 mg/kg. One hour after injection, blood and tissues were collected for LC-MS/MS analysis. Buparlisib plasma and brain levels increase dose-dependently, yielding similar and excellent brain-plasma ratios at all dose levels that were tested. (B) Immunoblotting of brain tissue lysates from (A). […] (C) Plasma-time curves of male and female wildtype mice following intravenous (2 mg/kg) or oral (5 mg/kg) administration. […] The oral bioavailability of buparlisib is excellent, since oral and intravenous administration yielded similar dose-adjusted AUCs (see Table 1). All data are represented as mean ± SD (n = 4).
The pharmacokinetics of buparlisib were analysed in WT, Abcg2^−/−, Abcb1a/b^−/− and Abcb1a/b; Abcg2^−/− FVB mice. All knockout mice strains have been developed within our institute[41]–[43]. For i.v. administration, buparlisib was dissolved in DMSO and injected at a dose of 2 mg/kg. For oral administration, buparlisib was formulated in DMSO:Cremophor EL:water (1:1:8 v/v/v) and administered at 1, 2 or 5 mg/kg as indicated. Tail vein bleeding was used to collect blood at intermediate time points, whereas at the last time point blood was drawn by cardiac puncture and various tissue were collected. Plasma was obtained from whole blood by centrifugation (5 min, 5,000 rpm, 4 °C). After weighing, tissues were homogenized using a FastPrep®-24 (MP-Biomedicals, NY) in 1% (w/v) bovine serum albumin in water. […]
Buparlisib was measured in samples from in vitro transport assays and in vivo pharmacokinetic studies using an LC-MS/MS system comprised of an UltiMate 3000 LC Systems (Dionex, Sunnyvale, CA) and an API 4000 mass spectrometer (Sciex, Framingham, MA). […]

In data set [2] the target is T1, murine BCRP (Abcg2/Bcrp1) (Mus musculus, UniProt Q7TMS5).
T1 construct: expressed in transfected cells; host or cells: MDCK (MDCK-Bcrp1)
T1 sequence (Q7TMS5 1-657): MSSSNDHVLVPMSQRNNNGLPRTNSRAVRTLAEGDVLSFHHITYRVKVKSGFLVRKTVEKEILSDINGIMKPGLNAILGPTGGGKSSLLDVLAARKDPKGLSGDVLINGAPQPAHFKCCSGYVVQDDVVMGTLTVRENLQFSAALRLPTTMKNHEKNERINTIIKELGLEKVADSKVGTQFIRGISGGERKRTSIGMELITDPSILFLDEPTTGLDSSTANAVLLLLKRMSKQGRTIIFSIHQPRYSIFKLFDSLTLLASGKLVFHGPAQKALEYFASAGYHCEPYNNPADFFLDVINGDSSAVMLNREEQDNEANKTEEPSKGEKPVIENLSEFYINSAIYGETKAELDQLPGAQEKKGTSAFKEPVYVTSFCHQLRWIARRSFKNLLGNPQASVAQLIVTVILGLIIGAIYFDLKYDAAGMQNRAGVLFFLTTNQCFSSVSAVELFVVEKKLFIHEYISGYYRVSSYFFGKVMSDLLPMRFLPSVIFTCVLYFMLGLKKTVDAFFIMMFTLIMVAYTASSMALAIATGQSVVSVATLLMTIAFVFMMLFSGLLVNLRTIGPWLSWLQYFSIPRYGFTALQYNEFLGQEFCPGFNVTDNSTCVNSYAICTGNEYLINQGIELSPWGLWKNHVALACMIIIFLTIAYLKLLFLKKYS
Description: Concentration equilibrium transport assay (CETA), MDCK-Bcrp1. To be noted: MDCK-Bcrp1, 100 nM. In kind it is in vitro ADME. From the text: Figure 1 Analysis of buparlisib substrate affinity for ABC transporters using in vitro transport assays. (A) The chemical structure of buparlisib. (B) A conventional transport assay (CTA) using LLC-PK1 cells in presence of zosuquidar to block endogenous (porcine) P-gp activity. […] (C) Concentration equilibrium transport assays (CETAs) using MDCK or LLC cells that overexpress murine BCRP, (Bcrp1), human BCRP, murine P-gp (Mdr1a) or human P-gp (MDR1). […] The P-gp inhibitor zosuquidar was used in all MDCK cell lines to inhibit endogenous P-gp activity and in LLC cell lines to validate possible P-gp-mediated translocations. […]
Conventional bidirectional transport assays (CTAs) and concentration equilibrium transport assays (CETAs) were performed as described previously. […] Transwell leakiness was determined as Carboxyl-[^14C]-inulin translocation exceeding 1.5% per hour and these wells were excluded from the analysis. […]
As described in detail before, CETA results were analysed with the General linear model repeated measures procedure of SPSS (v22; SPSS Inc, Chicago, IL)[25]. […] The standard error of the oral bioavailability was calculated using the formula below: SEF=F(SEAUCp.o./AUCp.o.)^2+(SEAUCi.v./AUCi.v.)^2 Buparlisib concentrations in WT and transporter knockout mice in vivo were compared using one-way analysis of variance followed by post hoc Bonferroni tests. […]

Structures are written as SMILES.

Here are results for 1 compound from publication PMC6050274, “Buparlisib is a brain penetrable pan-PI3K inhibitor” (Scientific Reports, 2018).

Turning to `Nc1cc(C(F)(F)F)c(-c2cc(N3CCOCC3)nc(N3CCOCC3)n2)cn1` [buparlisib], in data set [1] (FVB, mouse, brain/plasma, other: intravenous and oral, i.v. 2 mg/kg and oral 1, 2, 5 mg/kg (Figs 2C, 3A), read-out: brain-plasma ratio), the Kp at 1 h lay in the range of 1.5 to 2. Besides, the concentration at 1 h in data set [1] (FVB, mouse, plasma, 5 mg/kg oral, WT mice, 1 hour, read-out: plasma level) was about 1200 ng/mL. Besides, the “change of plasma and brain concentrations with dose” value in data set [1] (oral 1, 2, 5 mg/kg, WT mice, 1 hour) is reported as “dose-proportional increase”. The “substrate of murine BCRP” value in data set [2] is “very weak substrate”.
